Values quoted from earlier work as cited in patent US6376468B1, “Protein:prenyl transferase inhibitors” (Nederlandse Organisatie Voor …, priority 1999, dated 2002).

Target: T1, Ras farnesyl transferase from human colon carcinoma (Homo sapiens, UniProt P49354+P49356)
T1 construct: host or cells: human colon carcinoma
Settings: J. Biol. Chem. 268 (1993), 20695-98

IC50: 60 nM
Structure (SMILES): CSCCC(NC(=O)c1cccc(CNC(=O)C(N)CS)c1)C(=O)O (stereo not shown) [Cys-NH-CH2-mC6H4-CO-Met]
